From ChEMBL document CHEMBL1212926, “Design of potent inhibitors of human RAD51 recombinase based on BRC motifs of BRCA2 protein: modeling and experimental validation of a chimera peptide” (J Med Chem, 2010) come the findings set out here.

Experiment [1] deals with T1, DNA repair protein RAD51 homolog 1 (Homo sapiens) (UniProt Q06609).
T1 sequence (whole entry): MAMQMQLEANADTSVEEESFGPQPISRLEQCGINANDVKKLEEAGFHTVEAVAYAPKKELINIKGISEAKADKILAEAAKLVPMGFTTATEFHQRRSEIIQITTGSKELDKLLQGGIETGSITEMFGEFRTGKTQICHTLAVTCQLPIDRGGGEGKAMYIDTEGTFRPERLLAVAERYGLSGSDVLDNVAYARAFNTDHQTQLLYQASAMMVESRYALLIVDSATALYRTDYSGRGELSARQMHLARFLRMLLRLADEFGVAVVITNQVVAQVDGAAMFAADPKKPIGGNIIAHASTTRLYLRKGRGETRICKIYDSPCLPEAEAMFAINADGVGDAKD
Kind of experiment: Binding affinity to human RAD51 by isothermal titration calorimetry.

Experiment [2] addresses T1, DNA repair protein RAD51 homolog 1 (Homo sapiens). The experiment is described as follows: Inhibition of human RAD51-mediated 58-mer single-stranded DNA strand exchange activity at 5 to 15 uM after 1 hr by PAGE.
Experiment [3] shares this target. Kind of experiment: Binding affinity to human RAD51 at 40 uM by circular dichroism assay. (CD spectra are sensitive to the conformation of chiral molecules.)
The target in experiment [4] is T2, DNA repair protein RAD51 homolog 1 (Homo sapiens, UniProt Q06609).
T2 sequence (Q06609 whole entry): T1 sequence (whole entry)
The experiment is described as follows: Inhibition of human RAD51 assessed as concentration required for half dissociation of protein/single-stranded DNA complex formation by fluorescence polarimetry.

Experiment [5] deals with T2, DNA repair protein RAD51 homolog 1. The experiment is described as follows: Inhibition of human RAD51 assessed as dissociation of protein/single-stranded poly-(d-epsilonA) complex formation by fluorescence polarimetry.
Experiment [6] has the same target. The experiment is described as follows: Inhibition of human RAD51 assessed as dissociation of protein/single-stranded oligo(AGT)12 complex formation by fluorescence polarimetry.

Calls of active or inactive are those of the source. The rule behind the calls is not given here. Where a SMILES comes first, the peptide text is derived from it. A value given as a limit tells only on which side of the number the result lay.

Turning to `CC[C@H](C)[C@H](NC(=O)[C@H](CCCCN)NC(=O)[C@@H](NC(=O)[C@H](CCCCN)NC(=O)[C@H](CCCCN)NC(=O)CNC(=O)[C@H](CO)NC(=O)[C@H](CO)NC(=O)[C@@H](NC(=O)[C@H](Cc1cnc[nH]1)NC(=O)[C@H](Cc1ccccc1)NC(=O)CN)[C@@H](C)O)C(C)C)C(=O)N[C@@H](C)C(=O)N[C@@H](CCCCN)C(=O)N[C@@H](CCC(=O)O)C(=O)N[C@@H](CO)C(=O)N[C@@H](CC(C)C)C(=O)N[C@@H](CC(=O)O)C(=O)N[C@@H](CCCCN)C(=O)N[C@H](C(=O)N[C@@H](CCCCN)C(=O)N[C@@H](CC(N)=O)C(=O)N[C@@H](CC(C)C)C(=O)N[C@@H](Cc1ccccc1)C(=O)O)C(C)C`, the K in experiment [1] is < 0.1 ×10⁵ /M. Moreover, the inhibition result in experiment [2] was “Active”. In addition, the result in experiment [3] was Active.
As usually defined, the Ki is a dissociation constant, usually derived from enzyme kinetics or from competition with a known ligand. What is called IC50 is the concentration needed to halve the response being measured. Regarding `CC[C@H](C)[C@H](NC(=O)[C@H](CCCCN)NC(=O)[C@@H](NC(=O)[C@H](CCCCN)NC(=O)[C@H](CCCCN)NC(=O)CNC(=O)[C@H](CO)NC(=O)[C@H](C)NC(=O)[C@@H](NC(=O)[C@H](Cc1cnc[nH]1)NC(=O)[C@H](Cc1ccccc1)NC(=O)CN)[C@@H](C)O)C(C)C)C(=O)N[C@@H](C)C(=O)N[C@@H](CCCCN)C(=O)N[C@@H](CCC(=O)O)C(=O)N[C@@H](CO)C(=O)N[C@@H](CC(C)C)C(=O)N[C@@H](CC(=O)O)C(=O)N[C@@H](CCCCN)C(=O)N[C@H](C(=O)N[C@@H](CCCCN)C(=O)N[C@@H](CC(N)=O)C(=O)N[C@@H](Cc1ccccc1)C(=O)N[C@@H](Cc1ccccc1)C(=O)O)C(C)C`, the Ki in experiment [4] stood at 4.2 µM. For the same compound, the K in experiment [1] turned out to be 7.3 ×10⁵ /M. The IC50 in experiment [5] came to 5 µM; in experiment [6] it was 2.6 µM. Besides, the inhibition entry in experiment [2] was “Active”. In experiment [3], the outcome was Active.
With `CC[C@H](C)[C@H](NC(=O)[C@H](CCCCN)NC(=O)[C@@H](NC(=O)[C@H](CCCCN)NC(=O)[C@H](CCCCN)NC(=O)CNC(=O)[C@H](CO)NC(=O)[C@H](C)NC(=O)[C@@H](NC(=O)[C@H](Cc1ccc(O)cc1)NC(=O)[C@H](Cc1ccccc1)NC(=O)CN)[C@@H](C)O)C(C)C)C(=O)N[C@@H](C)C(=O)N[C@@H](CCCCN)C(=O)N[C@@H](CCC(=O)O)C(=O)N[C@@H](CO)C(=O)N[C@@H](CC(C)C)C(=O)N[C@@H](CC(=O)O)C(=O)N[C@@H](CCCCN)C(=O)N[C@H](C(=O)N[C@@H](CCCCN)C(=O)N[C@@H](CC(N)=O)C(=O)N[C@@H](CC(C)C)C(=O)N[C@@H](Cc1ccccc1)C(=O)O)C(C)C`, the Ki in experiment [4] is 6 µM. The K in experiment [1] is 3.8 ×10⁵ /M. The IC50 in experiment [5] is 7 µM; in experiment [6] it was 2.7 µM. Also, the inhibition result in experiment [2] was “Active”. Besides, the result in experiment [3] was Active.
As to `CC[C@H](C)[C@H](NC(=O)[C@H](CCCCN)NC(=O)[C@@H](NC(=O)[C@H](CCCCN)NC(=O)[C@H](CCCCN)NC(=O)CNC(=O)[C@H](CO)NC(=O)[C@H](C)NC(=O)[C@@H](NC(=O)[C@H](Cc1ccc(O)cc1)NC(=O)[C@H](Cc1ccccc1)NC(=O)CN)[C@@H](C)O)C(C)C)C(=O)N[C@@H](CO)C(=O)N[C@@H](CCCCN)C(=O)N[C@@H](CCC(=O)O)C(=O)N[C@@H](CO)C(=O)N[C@@H](CC(C)C)C(=O)N[C@@H](CC(=O)O)C(=O)N[C@@H](CCCCN)C(=O)N[C@H](C(=O)N[C@@H](CCCCN)C(=O)N[C@@H](CC(N)=O)C(=O)N[C@@H](Cc1ccccc1)C(=O)N[C@@H](Cc1ccccc1)C(=O)O)C(C)C` (H-GFYTASGKKVKISKESLDKVKNFF-OH), the Ki in experiment [4] is 0.75 µM. Also, the values for the IC50 in experiment [5] and in experiment [6] were 1.5 µM and 1.05 µM, respectively. The inhibition result in experiment [2] was “Active”.
With `CC[C@H](C)[C@H](NC(=O)[C@H](CCCCN)NC(=O)[C@@H](NC(=O)[C@H](CCCCN)NC(=O)[C@H](CCCCN)NC(=O)CNC(=O)[C@H](CO)NC(=O)[C@H](C)NC(=O)[C@@H](NC(=O)[C@H](Cc1cnc[nH]1)NC(=O)[C@H](Cc1ccccc1)NC(=O)CN)[C@@H](C)O)C(C)C)C(=O)N[C@@H](CO)C(=O)N[C@@H](CCCCN)C(=O)N[C@@H](CCC(=O)O)C(=O)N[C@@H](CO)C(=O)N[C@@H](CC(C)C)C(=O)N[C@@H](CC(=O)O)C(=O)N[C@@H](CCCCN)C(=O)N[C@H](C(=O)N[C@@H](CCCCN)C(=O)N[C@@H](CC(N)=O)C(=O)N[C@@H](CC(C)C)C(=O)N[C@@H](Cc1ccccc1)C(=O)O)C(C)C`, the Ki in experiment [4] stood at 1.8 µM. Also, the K in experiment [1] worked out at 5.2 ×10⁵ /M. Also, the IC50 stood at 2.5 µM in experiment [5] and 2 µM in experiment [6]. For the same compound, the inhibition entry in experiment [2] was “Active”. For the same compound, the result in experiment [3] was Active.
On to `CC[C@H](C)[C@H](NC(=O)[C@H](CCCCN)NC(=O)[C@@H](NC(=O)[C@H](CCCCN)NC(=O)[C@H](CCCCN)NC(=O)CNC(=O)[C@H](CO)NC(=O)[C@H](C)NC(=O)[C@@H](NC(=O)[C@@H](N)Cc1cnc[nH]1)[C@@H](C)O)C(C)C)C(=O)N[C@@H](C)C(=O)N[C@@H](CCCCN)C(=O)N[C@@H](CCC(=O)O)C(=O)N[C@@H](CO)C(=O)N[C@@H](CC(C)C)C(=O)N[C@@H](CC(=O)O)C(=O)N[C@@H](CCCCN)C(=O)N[C@H](C(=O)N[C@@H](CCCCN)C(=O)N[C@@H](CC(N)=O)C(=O)N[C@@H](CC(C)C)C(=O)N[C@@H](Cc1ccccc1)C(=O)N[C@@H](CC(=O)O)C(=O)N[C@@H](CCC(=O)O)C(=O)O)C(C)C` (H-HTASGKKVKIAKESLDKVKNLFDE-OH), for which, in experiment [3], the outcome was Active.
